In US8629102B2, “3-hydroxyisothiazole 1-oxide derivatives” (Mochida Pharmaceutical Co., Ltd., priority 2011, dated 2014):

Target: T1, GPR40 of human origin (Homo sapiens, UniProt O14842)
T1 construct: expressed in transfected cells
Assay: Agonist action on GPR40 of human origin (intracellular Ca2+ change)
Assay type: cell-based
Details: CHO cell strain stably expressing GPR40 of human origin; change in Ca2+ concentration, fluorescent calcium indicator
Method: Pharmacological Test Example 1: Agonist Action on GPR40 of Human Origin
A CHO cell strain stably expressing GPR40 of human origin was used to determine the agonist action of a subject compound. This cell strain was seeded in a clear bottom 96 well plate at 4×10^4 cells/100 pt/well. The cell strain iswas cultured in a CO2 incubator overnight using a Ham's F-12 medium containing a 10% fetal bovine serum, 100 U/mL penicillin, 0.1 mg/mL streptomycin, and 400 μg/mL Geneticin. Calcium 4 Assay Kit (Molecular Devices) was used as a fluorescent calcium indicator. One mL of 77 mg/mL probenecid (Invitrogen) was added to 100 mL of a calcium indicator solution to prepare a solution (loading solution) mixed with a 20 mM HEPES-containing Hanks' balanced salt solution (HBSS) in equal proportions. To the cells from which the culture solution is removed, 200 μl of the loading solution was added, and the cells were cultured in a CO2 incubator for 1 hour. The subject compound was diluted with a 20 mM HEPES-containing HBSS and was added to the cells by 50 μL, and the change in the Ca^2+ concentration was measured with an intracellular ion analyzer. The EC50 value of the subject compound was calculated using the dose-response curve of fluorescence intensity variation.

T1 sequence (O14842 whole entry): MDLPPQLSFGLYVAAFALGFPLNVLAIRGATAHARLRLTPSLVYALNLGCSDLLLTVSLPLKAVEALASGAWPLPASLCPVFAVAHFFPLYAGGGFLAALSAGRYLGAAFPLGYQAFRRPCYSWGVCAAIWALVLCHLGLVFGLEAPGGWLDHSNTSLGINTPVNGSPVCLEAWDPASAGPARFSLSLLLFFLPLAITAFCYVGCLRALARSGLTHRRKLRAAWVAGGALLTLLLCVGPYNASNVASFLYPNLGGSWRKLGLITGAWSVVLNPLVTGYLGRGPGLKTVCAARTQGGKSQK

Structure (SMILES): COc1ccc(Cl)cc1-c1cccc2c1CC[C@H]2Oc1ccc(-c2cc(O)n[s+]2[O-])cc1 (stereo partly drawn) [Example 55, 5-(4-(((R)-4-(5-chloro-2-methoxyphenyl)-2,3-dihydro-1H-inden-1-yl)oxy)phenyl)-3-hydroxyisothiazole 1-oxide]
- EC50: 300 to 3000 nM

Structure (SMILES): Cc1nc(OCCCS(C)(=O)=O)ccc1Oc1cccc2c1CC[C@H]2Oc1ccc(-c2cc(O)n[s+]2[O-])cc1 (stereo partly drawn) [Example 117, 3-hydroxy-5-(4-(((R)-4-((2-methyl-6-(3-(methylsulfonyl)propoxy)pyridin-3-yl)oxy)-2,3-dihydro-1H-inden-1-yl)oxy)phenyl)isothiazole 1-oxide]
- EC50: < 300 nM

Structure (SMILES): CCOc1ccc(-c2cccc3c2CC[C@H]3Oc2ccc(-c3cc(O)n[s+]3[O-])cc2)cc1F (stereo partly drawn) [Example 44, 5-(4-(((R)-4-(4-ethoxy-3-fluorophenyl)-2,3-dihydro-1H-inden-1-yl)oxy)phenyl)-3-hydroxyisothiazole 1-oxide]
- EC50: 300 to 3000 nM

Structure (SMILES): [O-][s+]1nc(O)cc1-c1ccc(O[C@@H]2CCc3c(-c4ccc(Cl)cc4F)cccc32)cc1 (stereo partly drawn) [Example 16, 5-(4-(((R)-4-(4-chloro-2-fluorophenyl)-2,3-dihydro-1H-inden-1-yl)oxy)phenyl)-3-hydroxyisothiazole 1-oxide]
- EC50: 300 to 3000 nM

Structure (SMILES): COc1ccc(Oc2cccc3c2OCC3Oc2ccc(-c3cc(O)n[s+]3[O-])cc2)cn1 (stereo not shown) [Example 140, 3-hydroxy-5-(4-((7-((6-methoxypyridin-3-yl)oxy)-2,3-dihydrobenzofuran-3-yl)oxy)phenyl)isothiazole 1-oxide]
- EC50: < 300 nM

Structure (SMILES): Cc1ncccc1Oc1cccc2c1CC[C@H]2Oc1ccc(-c2cc(O)n[s+]2[O-])cc1 (stereo partly drawn) [Example 126, 3-hydroxy-5-(4-(((R)-4-((2-methylpyridin-3-yl)oxy)-2,3-dihydro-1H-inden-1-yl)oxy)phenyl)isothiazole 1-oxide]
- EC50: < 300 nM

Structure (SMILES): CC(C)c1ccc(-c2cccc3c2CC[C@H]3Oc2ccc(-c3cc(O)n[s+]3[O-])cc2)c(Cl)n1 (stereo partly drawn) [Example 76, 5-(4-(((R)-4-(6-isopropyl-2-chloropyridin-3-yl)-2,3-dihydro-1H-inden-1-yl)oxy)phenyl)-3-hydroxyisothiazole 1-oxide]
- EC50: < 300 nM

Structure (SMILES): N#Cc1ccc(-c2cccc3c2CC[C@H]3Oc2ccc(-c3cc(O)n[s+]3[O-])cc2)cn1 (stereo partly drawn) [Example 157, 5-((1R)-1-(4-(3-hydroxy-1-oxidoisothiazol-5-yl)phenoxy)-2,3-dihydro-1H-inden-4-yl)picolinonitrile]
- EC50: 300 to 3000 nM

Structure (SMILES): Cc1nc(OCCC(C)(C)O)ccc1Oc1cccc2c1OCC2Oc1ccc(-c2cc(O)n[s+]2[O-])cc1 (stereo not shown) [Example 141, 3-hydroxy-5-(4-((7-((6-(3-hydroxy-3-methylbutoxy)-2-methylpyridin-3-yl)oxy)-2,3-dihydrobenzofuran-3-yl)oxy)phenyl)isothiazole 1-oxide]
- EC50: < 300 nM

Structure (SMILES): COc1ccc(F)c(-c2cccc3c2CC[C@H]3Oc2ccc(-c3cc(O)n[s+]3[O-])cc2)c1 (stereo partly drawn) [Example 53, 5-(4-(((R)-4-(2-fluoro-5-methoxyphenyl)-2,3-dihydro-1H-inden-1-yl)oxy)phenyl)-3-hydroxyisothiazole 1-oxide]
- EC50: < 300 nM

Structure (SMILES): [O-][s+]1nc(O)cc1-c1ccc(O[C@@H]2CCc3c(-c4cccc(F)c4)cccc32)cc1 (stereo partly drawn) [Example 29, 5-(4-(((R)-4-(3-fluorophenyl)-2,3-dihydro-1H-inden-1-yl)oxy)phenyl)-3-hydroxyisothiazole 1-oxide]
- EC50: < 300 nM

Structure (SMILES): CCOc1ccc(F)cc1-c1cccc2c1CC[C@H]2Oc1ccc(-c2cc(O)n[s+]2[O-])cc1 (stereo partly drawn) [Example 4, 5-(4-(((1R)-4-(2-ethoxy-5-fluorophenyl)-2,3-dihydro-1H-inden-1-yl)oxy)phenyl)-3-hydroxyisothiazole 1-oxide]
- EC50: < 300 nM

Structure (SMILES): CNC(=O)c1ccc(Oc2cccc3c2CC[C@H]3Oc2ccc(-c3cc(O)n[s+]3[O-])cc2)cc1 (stereo partly drawn) [Example 136, 4-(((1R)-1-(4-(3-hydroxy-1-oxidoisothiazol-5-yl)phenoxy)-2,3-dihydro-1H-inden-4-yl)oxy)-N-methylbenzamide]
- EC50: < 300 nM

Structure (SMILES): [O-][s+]1nc(O)cc1-c1ccc(O[C@@H]2CCc3c(-c4cc(C(F)(F)F)ccc4Cl)cccc32)cc1 (stereo partly drawn) [Example 68, 5-(4-(((R)-4-(2-chloro-5-trifluoromethylphenyl)-2,3-dihydro-1H-inden-1-yl)oxy)phenyl)-3-hydroxyisothiazole 1-oxide]
- EC50: 300 to 3000 nM

Structure (SMILES): Cc1cc(Oc2cccc3c2CC[C@H]3Oc2ccc(-c3cc(O)n[s+]3[O-])cc2)ccn1 (stereo partly drawn) [Example 135, 3-hydroxy-5-(4-(((R)-4-((2-methylpyridin-4-yl)oxy)-2,3-dihydro-1H-inden-1-yl)oxy)phenyl)isothiazole 1-oxide]
- EC50: < 300 nM

Structure (SMILES): [O-][s+]1nc(O)cc1-c1ccc(O[C@@H]2CCc3c(-c4ccc(Cl)s4)cccc32)cc1 (stereo partly drawn) [Example 81, 5-(4-(((R)-4-(5-chlorothiophen-2-yl)-2,3-dihydro-1H-inden-1-yl)oxy)phenyl)-3-hydroxyisothiazole 1-oxide]
- EC50: < 300 nM

Structure (SMILES): COc1ccc(Oc2cccc3c2CC[C@H]3Oc2ccc(-c3cc(O)n[s+]3[O-])cc2)cn1 (stereo partly drawn) [Example 100, 3-hydroxy-5-(4-(((R)-4-((6-methoxypyridin-3-yl)oxy)-2,3-dihydro-1H-inden-1-yl)oxy)phenyl)isothiazole 1-oxide]
- EC50: < 300 nM

Structure (SMILES): CC(C)(O)CCOc1ccc(Oc2cccc3c2CC[C@H]3Oc2ccc(-c3cc(O)n[s+]3[O-])cc2)cn1 (stereo partly drawn) [Example 97, 3-hydroxy-5-(4-(((R)-4-((6-(3-hydroxy-3-methylbutoxy)pyridin-3-yl)oxy)-2,3-dihydro-1H-inden-1-yl)oxy)phenyl)isothiazole 1-oxide]
- EC50: < 300 nM

Structure (SMILES): [O-][s+]1nc(O)cc1-c1ccc(O[C@@H]2CCc3c(-c4ccc(OCC5CC5)nc4)cccc32)cc1 (stereo partly drawn) [Example 78, 5-(4-(((R)-4-(6-(cyclopropylmethoxy)pyridin-3-yl)-2,3-dihydro-1H-inden-1-yl)oxy)phenyl)-3-hydroxyisothiazole 1-oxide]
- EC50: < 300 nM

Structure (SMILES): COc1cc(Cl)cc(-c2cccc3c2CC[C@H]3Oc2ccc(-c3cc(O)n[s+]3[O-])cc2)c1 (stereo partly drawn) [Example 14, 5-(4-(((R)-4-(3-chloro-5-methoxyphenyl)-2,3-dihydro-1H-inden-1-yl)oxy)phenyl)-3-hydroxyisothiazole 1-oxide]
- EC50: < 300 nM

Structure (SMILES): CCc1ccc(-c2cccc3c2CC[C@H]3Oc2ccc(-c3cc(O)n[s+]3[O-])cc2)cc1 (stereo partly drawn) [Example 20, 5-(4-(((R)-4-(4-ethylphenyl)-2,3-dihydro-1H-inden-1-yl)oxy)phenyl)-3-hydroxyisothiazole 1-oxide]
- EC50: 300 to 3000 nM

Structure (SMILES): [O-][s+]1nc(O)cc1-c1ccc(O[C@@H]2CCc3c(-c4ccccc4Cl)cccc32)cc1 (stereo partly drawn) [Example 10, 5-(4-(((R)-4-(2-chlorophenyl)-2,3-dihydro-1H-inden-1-yl)oxy)phenyl)-3-hydroxyisothiazole 1-oxide]
- EC50: < 300 nM

Structure (SMILES): [O-][s+]1nc(O)cc1-c1ccc(O[C@@H]2CCc3c(Oc4ccsc4)cccc32)cc1 (stereo partly drawn) [Example 111, 3-hydroxy-5-(4-(((R)-4-(thiophen-3-yloxy)-2,3-dihydro-1H-inden-1-yl)oxy)phenyl)isothiazole 1-oxide]
- EC50: < 300 nM

Structure (SMILES): COc1ccc(Cl)c(-c2cccc3c2CC[C@H]3Oc2ccc(-c3cc(O)n[s+]3[O-])cc2)c1 (stereo partly drawn) [Example 52, 5-(4-(((R)-4-(2-chloro-5-methoxyphenyl)-2,3-dihydro-1H-inden-1-yl)oxy)phenyl)-3-hydroxyisothiazole 1-oxide]
- EC50: < 300 nM

Structure (SMILES): CCOc1cc(Cl)ccc1-c1cccc2c1CC[C@H]2Oc1ccc(-c2cc(O)n[s+]2[O-])cc1 (stereo partly drawn) [Example 18, 5-(4-(((R)-4-(4-chloro-2-ethoxyphenyl)-2,3-dihydro-1H-inden-1-yl)oxy)phenyl)-3-hydroxyisothiazole 1-oxide]
- EC50: 300 to 3000 nM

Structure (SMILES): [O-][s+]1nc(O)cc1-c1ccc(O[C@@H]2CCc3c(-c4cc(F)ccc4OCc4ccccc4)cccc32)cc1 (stereo partly drawn) [Example 62, 5-(4-(((R)-4-(2-benzyloxy-5-fluorophenyl)-2,3-dihydro-1H-inden-1-yl)oxy)phenyl)-3-hydroxyisothiazole 1-oxide]
- EC50: 300 to 3000 nM

Structure (SMILES): [O-][s+]1nc(O)cc1-c1ccc(OC2COc3c(Oc4ccccc4)cccc32)cc1 (single isomer, unassigned) [Example 145-a, 3-hydroxy-5-(4-((7-phenoxy-2,3-dihydrobenzofuran-3-yl)oxy)phenyl)isothiazole 1-oxide]
- EC50: < 300 nM

Structure (SMILES): [O-][s+]1nc(O)cc1-c1ccc(O[C@@H]2CCc3c(-c4ccccc4OC(F)(F)F)cccc32)cc1 (stereo partly drawn) [Example 65, 5-(4-(((R)-4-(2-trifluoromethoxyphenyl)-2,3-dihydro-1H-inden-1-yl)oxy)phenyl)-3-hydroxyisothiazole 1-oxide]
- EC50: < 300 nM

Structure (SMILES): [O-][s+]1nc(O)cc1-c1ccc(OC2COc3c(Br)cccc32)cc1 (single isomer, unassigned) [Example 150, 5-(4-((7-bromo-2,3-dihydrobenzofuran-3-yl)oxy)phenyl)-3-hydroxyisothiazole 1-oxide]
- EC50: < 300 nM

Structure (SMILES): NC(=O)c1cccc(Oc2cccc3c2CC[C@H]3Oc2ccc(-c3cc(O)n[s+]3[O-])cc2)c1 (stereo partly drawn) [Example 128, 3-(((1R)-1-(4-(3-hydroxy-1-oxidoisothiazol-5-yl)phenoxy)-2,3-dihydro-1H-inden-4-yl)oxy)benzamide]
- EC50: < 300 nM

Structure (SMILES): Cc1cccc(Oc2cccc3c2CC[C@H]3Oc2ccc(-c3cc(O)n[s+]3[O-])cc2)n1 (stereo partly drawn) [Example 130, 3-hydroxy-5-(4-(((R)-4-((6-methylpyridin-2-yl)oxy)-2,3-dihydro-1H-inden-1-yl)oxy)phenyl)isothiazole 1-oxide]
- EC50: < 300 nM
